Experimental data published in publication PMC11280325, “Design, Synthesis, and Characterization of Novel Thiazolidine-2,4-Dione-Acridine Hybrids as Antitumor Agents” (Molecules, 2024).
Counter-ions that a name gives are not always drawn.

Tests used:
A549 = experiment: MTT assay, A549; format: cell-based, human; settings: lung adenocarcinoma, 48 h incubation
Procedure: (§1) The human cancer cell lines HeLa (cervical adenocarcinoma), HCT116 (colorectal adenocarcinoma), A2780 (human ovarian adenocarcinoma), A2780cis (human ovarian adenocarcinoma cisplatin-resistant), Jurkat (acute T-lymphoblastic leukemia), and Hep G2 (hepatocellular carcinoma) were cultured in an RPMI 1640 growth medium (Biosera, Kansas City, MO, USA). The cancer cell lines MDA-MB-231 (triple-negative breast adenocarcinoma), A2058 (human melanoma), U87 (human glioblastoma), PATU 8902 (pancreas adenocarcinoma), and A549 (human lung adenocarcinoma) were cultured in a DMEM medium (Biosera, Kansas City, MO, USA). The media were supplemented with 10% fetal bovine serum (FBS) (Invitrogen, Carlsbad, CA, USA) and 1× HyClone™ Antibiotic/Antimycotic Solution (GE Healthcare, Piscataway, NJ, USA).
(§2) To evaluate the IC50 (half-maximal inhibitory concentration) and confirm the antiproliferative activity of the tested substances, we employed the colorimetric MTT assay (3-(4,5-dimethylthiazol-2-yl)-2,5-diphenyltetrazolium bromide) (Sigma-Aldrich Chemie, Steinheim, Germany). The cell lines were seeded in 96-well plates at a density of 5 × 10^3 to 10 × 10^3 cells per well. After 24 h, the tested substances, dissolved in the cultivation medium, were added to the cells at final concentrations of 5, 10, 20, and 50 µmol/L. The cells were then incubated for 48 h under standard cultivation conditions. Following the incubation period, MTT was added to each well. The MTT was metabolized by the cells into insoluble formazan crystals, which were subsequently dissolved by adding 100 µL of 10% SDS. After another 24 h, the absorbance was measured at a wavelength of 540 nm using the automated Cytation™ 3 Cell Imaging Multi-Mode Reader (Biotek, Winooski, VT, USA). The experiments were performed in at least three independent repetitions. IC50 values were calculated using a nonlinear regression method.

PATU = experiment: MTT assay, PATU 8902; format: cell-based, human; settings: pancreas adenocarcinoma, 48 h incubation
Procedure: as §1, §2

A2058 = experiment: MTT assay, A2058; format: cell-based; settings: human melanoma, 48 h incubation
Procedure: as §1, §2

Hep G2 = experiment: MTT assay, Hep G2; format: cell-based, human; settings: hepatocellular carcinoma, 48 h incubation
Procedure: as §1, §2

HeLa = experiment: MTT assay, HeLa; format: cell-based, human; settings: cervical adenocarcinoma, 48 h incubation
Procedure: as §1, §2

HCT116 = experiment: MTT assay, HCT116; format: cell-based, human; settings: colorectal adenocarcinoma, 48 h incubation
Procedure: as §1, §2

Bj-5ta = experiment: MTT assay, BJ-5ta non-cancerous fibroblasts; format: cell-based, human; settings: non-cancerous dermal fibroblasts, 48 h incubation
Procedure: (§3) The non-cancerous cell line MCF-10A (human epithelial breast cells) was cultured in a DMEM F12 medium supplemented with 10% FBS (Invitrogen, Carlsbad, CA, USA), 1× HyClone™ Antibiotic/Antimycotic Solution (GE Healthcare, Piscataway, NJ, USA), insulin, hEGF, and hydrocortisone. The BJ-5ta cells (human dermal fibroblasts) were cultured in a DMEM-M199 4:1 medium mixture, supplemented with 10% FBS and hygromycin B (0.01 mg/mL). The cells were maintained under standard conditions with an atmosphere containing 5% CO2 at 37 °C. Cell viability, estimated by trypan blue exclusion, was consistently greater than 95% before each experiment.
as §2

A2780 = experiment: MTT assay, A2780; format: cell-based, human; settings: ovarian adenocarcinoma, 48 h incubation
Procedure: as §1, §2

MCF-10A = experiment: MTT assay, MCF-10A non-cancerous cells; format: cell-based, human; settings: non-cancerous epithelial breast cells, 48 h incubation
Procedure: as §3, §2

SMILES	IC50 (A549) [µM]	IC50 (PATU) [µM]	IC50 (A2058) [µM]	IC50 (Hep G2) [µM]	IC50 (HeLa) [µM]	IC50 (HCT116) [µM]	IC50 (Bj-5ta) [µM]	IC50 (A2780) [µM]	IC50 (MCF-10A) [µM]
O=C(COc1ccc(/C=C2\SC(=O)N(Cc3cccc4cc5ccccc5nc34)C2=O)cc1)Nc1cccc(C(F)(F)F)c1 [8f·HCl, 2-(4-{[(5Z)-3-[(Acridin-4-yl)methyl]-2,4-dioxo-1,3-thiazolidin-5-ylidene]methyl}phenoxy)-N-[3-(trifluoromethyl)phenyl]acetamide hydrochloride]	> 50	> 50	> 50	> 50	> 50	> 50	> 50		
COc1cc(/C=C2\SC(=O)N(Cc3c4ccccc4nc4ccccc34)C2=O)ccc1OCC(=O)Nc1ccccc1C(F)(F)F [12e·2HCl, 2-(4-{[(5Z)-3-[(Acridin-9-yl)methyl]-2,4-dioxo-1,3-thiazolidin-5-ylidene]methyl}-2-methoxyphenoxy)-N-[2-(trifluoromethyl)phenyl]acetamide dihydrochloride]	> 50	> 50	> 50	> 50	13.2 ± 4.9	29.2 ± 3.7	> 50	> 50	> 50
COc1cc(/C=C2\SC(=O)N(Cc3cccc4cc5ccccc5nc34)C2=O)ccc1OCC(=O)Nc1ccc([N+](=O)[O-])cc1 [13d·HCl, 2-(4-{[(5Z)-3-[(Acridin-4-yl)methyl]-2,4-dioxo-1,3-thiazolidin-5-ylidene]methyl}-2-methoxyphenoxy)-N-(4-nitrophenyl)acetamide hydrochloride]	> 50	> 50	> 50	> 50	> 50	> 50	> 50		
COc1cc(/C=C2\SC(=O)N(Cc3cccc4cc5ccccc5nc34)C2=O)ccc1OCC(=O)Nc1ccccc1C(F)(F)F [13e·HCl, 2-(4-{[(5Z)-3-[(Acridin-4-yl)methyl]-2,4-dioxo-1,3-thiazolidin-5-ylidene]methyl}-2-methoxyphenoxy)-N-[2-(trifluoromethyl)phenyl]acetamide hydrochloride]	42.8 ± 5.4	39.8 ± 7.1	> 50	> 50	13.7 ± 4.5	14.5 ± 3.4	> 50		
COc1cc(/C=C2\SC(=O)N(Cc3c4ccccc4nc4ccccc34)C2=O)ccc1OCC(=O)Nc1ccccc1 [Compound 12a·2HCl, 2-(4-{[(5Z)-3-[(Acridin-9-yl)methyl]-2,4-dioxo-1,3-thiazolidin-5-ylidene]methyl}-2-methoxyphenoxy)-N-phenylacetamide dihydrochloride]	> 50	> 50	> 50	> 50	18.2 ± 5.1	6.55 ± 1.65	35.5 ± 4.5	15 ± 1.35	19.3 ± 1.1
O=C(COc1ccc(/C=C2\SC(=O)N(Cc3cccc4cc5ccccc5nc34)C2=O)cc1)Nc1ccccc1 [8a·HCl, 2-(4-{[(5Z)-3-[(Acridin-4-yl)methyl]-2,4-dioxo-1,3-thiazolidin-5-ylidene]methyl}phenoxy)-N-phenylacetamide hydrochloride]	> 50	> 50	> 50	> 50	42.6 ± 0.75	> 50	> 50		
O=C(COc1ccc(/C=C2\SC(=O)N(Cc3c4ccccc4nc4ccccc34)C2=O)cc1)Nc1ccc([N+](=O)[O-])cc1 [7d·2HCl, 2-(4-{[(5Z)-3-[(Acridin-9-yl)methyl]-2,4-dioxo-1,3-thiazolidin-5-ylidene]methyl}phenoxy)-N-(4-nitrophenyl)acetamide dihydrochloride]	> 50	> 50	> 50	> 50	4.55 ± 0.35	8.6 ± 2.9	> 50	> 50	> 50
O=C(COc1ccc(/C=C2\SC(=O)N(Cc3c4ccccc4nc4ccccc34)C2=O)cc1)Nc1cc(C(F)(F)F)cc(C(F)(F)F)c1 [7g·2HCl, 2-(4-{[(5Z)-3-[(Acridin-9-yl)methyl]-2,4-dioxo-1,3-thiazolidin-5-ylidene]methyl}phenoxy)-N-[3,5-bis(trifluoromethyl)phenyl]acetamide dihydrochloride]	32.4 ± 7.6	> 50	> 50	> 50	19.3 ± 4.6	> 50	> 50	> 50	13.2 ± 3.2
COc1cc(/C=C2\SC(=O)N(Cc3cccc4cc5ccccc5nc34)C2=O)ccc1OCC(=O)Nc1cc(C(F)(F)F)cc(C(F)(F)F)c1 [13g·HCl, 2-(4-{[(5Z)-3-[(Acridin-4-yl)methyl]-2,4-dioxo-1,3-thiazolidin-5-ylidene]methyl}-2-methoxyphenoxy)-N-[3,5-bis(trifluoromethyl)phenyl]acetamide hydrochloride]	> 50	> 50	> 50	> 50	34.7 ± 6.4	> 50	> 50		
COc1cc(NC(=O)COc2ccc(/C=C3\SC(=O)N(Cc4cccc5cc6ccccc6nc45)C3=O)cc2OC)cc(OC)c1 [13b·HCl, 2-(4-{[(5Z)-3-[(Acridin-4-yl)methyl]-2,4-dioxo-1,3-thiazolidin-5-ylidene]methyl}-2-methoxyphenoxy)-N-(3,5-dimethoxyphenyl)acetamide hydrochloride]	> 50	> 50	> 50	> 50	45.5 ± 2.9	> 50	> 50		
COc1cc(/C=C2\SC(=O)N(Cc3cccc4cc5ccccc5nc34)C2=O)ccc1OCC(=O)Nc1ccccc1 [13a·HCl, 2-(4-{[(5Z)-3-[(Acridin-4-yl)methyl]-2,4-dioxo-1,3-thiazolidin-5-ylidene]methyl}-2-methoxyphenoxy)-N-phenylacetamide hydrochloride]	> 50	> 50	> 50	> 50	> 50	> 50	> 50		
O=C(COc1ccc(/C=C2\SC(=O)N(Cc3cccc4cc5ccccc5nc34)C2=O)cc1)Nc1ccc([N+](=O)[O-])cc1 [8d·HCl, 2-(4-{[(5Z)-3-[(Acridin-4-yl)methyl]-2,4-dioxo-1,3-thiazolidin-5-ylidene]methyl}phenoxy)-N-(4-nitrophenyl)acetamide hydrochloride]	> 50	> 50	> 50	> 50	> 50	> 50	> 50		
O=C(COc1ccc(/C=C2\SC(=O)N(Cc3cccc4cc5ccccc5nc34)C2=O)cc1)Nc1ccccc1C(F)(F)F [8e·HCl, 2-(4-{[(5Z)-3-[(Acridin-4-yl)methyl]-2,4-dioxo-1,3-thiazolidin-5-ylidene]methyl}phenoxy)-N-[2-(trifluoromethyl)phenyl]acetamid hydrochloride]	> 50	> 50	> 50	> 50	> 50	> 50	> 50		
COc1cc(/C=C2\SC(=O)N(Cc3cccc4cc5ccccc5nc34)C2=O)ccc1OCC(=O)Nc1cccc(C(F)(F)F)c1 [13f·HCl, 2-(4-{[(5Z)-3-[(Acridin-4-yl)methyl]-2,4-dioxo-1,3-thiazolidin-5-ylidene]methyl}-2-methoxyphenoxy)-N-[3-(trifluoromethyl)phenyl]acetamide hydrochloride]	38.2 ± 7.35	43.7 ± 5.8	> 50	> 50	12.3 ± 4.9	14.3 ± 3.2	> 50		
